Patent US10004732B2 (Novartis AG, priority 2014, dated 2018)
Structures can show the parent of a compound that is named as a salt. Where two headings read alike, the source gives them in different places.

Legend:
PI 3-kinase delta [1] = target: T1, PI 3-kinase delta (Homo sapiens, UniProt O00329); experiment: TR-FRET Adapta assay, assay F
Target sequence in this assay (O00329 whole entry): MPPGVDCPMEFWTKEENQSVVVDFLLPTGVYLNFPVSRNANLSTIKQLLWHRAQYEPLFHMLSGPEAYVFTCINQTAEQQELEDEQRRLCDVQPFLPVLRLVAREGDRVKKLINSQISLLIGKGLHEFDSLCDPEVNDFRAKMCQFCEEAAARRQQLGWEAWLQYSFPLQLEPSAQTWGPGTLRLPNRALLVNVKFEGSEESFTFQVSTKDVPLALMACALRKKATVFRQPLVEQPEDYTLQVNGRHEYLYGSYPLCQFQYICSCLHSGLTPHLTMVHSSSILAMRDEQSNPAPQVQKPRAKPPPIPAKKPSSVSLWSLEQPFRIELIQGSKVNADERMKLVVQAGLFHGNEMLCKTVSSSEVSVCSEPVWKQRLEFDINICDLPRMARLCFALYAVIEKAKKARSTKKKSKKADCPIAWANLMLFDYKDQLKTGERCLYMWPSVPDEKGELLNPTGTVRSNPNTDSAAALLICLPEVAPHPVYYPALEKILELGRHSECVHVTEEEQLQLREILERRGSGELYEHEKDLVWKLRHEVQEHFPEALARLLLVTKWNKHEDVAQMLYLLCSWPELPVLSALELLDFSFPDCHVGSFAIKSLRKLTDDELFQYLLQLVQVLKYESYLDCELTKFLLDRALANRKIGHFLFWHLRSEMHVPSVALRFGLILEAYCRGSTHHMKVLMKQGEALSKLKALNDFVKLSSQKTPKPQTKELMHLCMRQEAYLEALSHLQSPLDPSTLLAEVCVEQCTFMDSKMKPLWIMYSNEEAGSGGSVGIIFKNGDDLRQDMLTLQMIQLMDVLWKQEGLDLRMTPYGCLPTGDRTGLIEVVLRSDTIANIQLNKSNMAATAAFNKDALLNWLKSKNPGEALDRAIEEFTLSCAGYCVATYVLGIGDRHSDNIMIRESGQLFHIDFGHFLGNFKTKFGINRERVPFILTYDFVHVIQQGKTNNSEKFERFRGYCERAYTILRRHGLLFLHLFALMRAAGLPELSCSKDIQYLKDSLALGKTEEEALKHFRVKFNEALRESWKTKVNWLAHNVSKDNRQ
Target sequence in this assay (P27986 461-568 partner): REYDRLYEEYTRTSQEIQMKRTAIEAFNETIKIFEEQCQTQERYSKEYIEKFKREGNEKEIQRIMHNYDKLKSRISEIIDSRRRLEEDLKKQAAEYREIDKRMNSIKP

PI 4-kinase beta = PI 4-kinase beta (Homo sapiens, UniProt Q9UBF8); experiment: Kinase Glo Luminescent Kinase Assay (Kglo), assay D; assay type: biochemical; details: read-out: Assay D PI4Kβ IC50
PI 3-kinase alpha [2] = target: T2, PI 3-kinase alpha (Homo sapiens, UniProt P42336); experiment: Cellular assay H1, p-Akt (S473) in Rat-1 cells, Surefire format; assay type: cell-based; details: non-asterisked data: version H1 (Surefire format), Rat-1 cells; read-out: Assay H PI3Kα IC50
PI 3-kinase alpha [3] = target: T2, PI 3-kinase alpha; experiment: Kinase Glo Luminescent Kinase Assay (Kglo), assay A; assay type: biochemical; details: read-out: Assay A PI3Kα IC50
PI 3-kinase gamma = PI 3-kinase gamma (Homo sapiens, UniProt P48736); experiment: TR-FRET Adapta assay, assay E; assay type: biochemical; details: read-out: Assay E PI3Kγ IC50
PI 3-kinase beta [4] = target: T3, PI 3-kinase beta (Homo sapiens, UniProt P42338); experiment: Cellular assay I1, p-Akt (S473) in Rat-1 cells, Surefire format; assay type: cell-based; details: non-asterisked data: version I1 (Surefire format), Rat-1 cells; read-out: Assay I PI3Kβ IC50
PI 3-kinase delta [5] = target: T1, PI 3-kinase delta; experiment: Cellular assay J1, p-Akt (S473) in Rat-1 cells, Surefire format; assay type: cell-based; details: non-asterisked data: version J1 (Surefire format), Rat-1 cells; read-out: Assay J PI3Kδ IC50
Target sequence in this assay (O00329 whole entry): as the sequence (O00329 whole entry) above
Target sequence in this assay (Q63787 whole entry partner): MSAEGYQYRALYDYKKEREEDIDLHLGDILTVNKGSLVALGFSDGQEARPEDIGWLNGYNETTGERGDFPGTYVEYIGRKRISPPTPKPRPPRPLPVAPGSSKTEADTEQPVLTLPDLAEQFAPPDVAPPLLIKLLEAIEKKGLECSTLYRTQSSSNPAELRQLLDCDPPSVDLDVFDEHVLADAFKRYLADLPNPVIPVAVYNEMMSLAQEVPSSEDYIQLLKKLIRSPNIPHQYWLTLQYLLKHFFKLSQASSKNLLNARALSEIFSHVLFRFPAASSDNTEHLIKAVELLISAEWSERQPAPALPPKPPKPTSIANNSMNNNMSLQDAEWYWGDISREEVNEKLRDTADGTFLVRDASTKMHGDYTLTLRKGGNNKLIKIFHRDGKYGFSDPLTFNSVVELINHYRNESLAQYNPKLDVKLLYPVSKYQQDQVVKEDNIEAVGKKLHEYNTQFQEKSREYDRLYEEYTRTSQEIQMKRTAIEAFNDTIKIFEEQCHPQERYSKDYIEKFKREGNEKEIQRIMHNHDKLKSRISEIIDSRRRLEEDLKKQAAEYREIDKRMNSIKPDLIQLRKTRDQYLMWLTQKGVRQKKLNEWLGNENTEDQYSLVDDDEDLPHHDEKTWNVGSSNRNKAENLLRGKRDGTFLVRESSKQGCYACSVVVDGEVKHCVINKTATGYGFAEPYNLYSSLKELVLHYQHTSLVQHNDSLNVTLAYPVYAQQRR
Description: Cellular Assays for PI 3-Kinase Alpha (H1), Beta (I1) and Delta (J1): Surefire Format
AlphaScreen (Amplified Luminescent Proximity Homogeneous Assay, ALPHA, Perkin Elmer) is a non-radioactive bead-based proximity assay technology to study biomolecular interactions in a homogenous microtiter plate format. The brand name SureFire denotes AlphaScreen assays that are adapted to quantify the phosphorylation of endogenous cellular proteins in cell lysates, by using matched antibody pairs, which consist of an anti-phospho-kinase and an anti-kinase antibody. The assay allows characterization of kinase signaling in cells as well as measurement of kinase inhibitor effects.
Using Rat-1 cells stably expressing myr-HA-tagged versions of the human PI3Kdelta, PI3Kalpha, or PI3Kbeta p110 catalytic subunit isoforms, the assay was developed as a two-plate protocol in a 384-well format.
For compound testing, the cells were seeded at a density of 4000 (Rat-1_PI3Kdelta), 7500 (Rat-1_PI3Kalpha), or 6200 (Rat-1_PI3Kbeta) cells in 20 μl complete growth medium into cell culture treated 384-well plates and were grown at 37° C./5% CO2/90% humidity for 24 h. Shortly before compound transfer, the complete medium was removed, 30 μl assay buffer (DMEM high glucose, 1×MEM NEAA, 10 mM HEPES, 2 mM L-glutamine, 0.1% (w/v) BSA) was added and 10 μl of the compound predilutions were transferred to the cells.

[6] = Microsomal clearance assay (M); details: intrinsic clearance in rat liver microsomes
Protocol: The experiments were performed in 96-well glass plates at 37° C. on an automated Tecan EVO platform. Test compounds at a concentration of 10 mM in pure DMSO were diluted 1:1000 in water to 10 μM. […] Reactions were initiated by the addition of 150 μL of a cofactor solution containing 2 mM NADPH.

mTOR = mTOR (Homo sapiens, UniProt P42345); experiment: Lanthascreen kinase binding assay, assay G; details: read-out: Assay G mTOR IC50
Protocol: Lanthascreen™ Kinase Binding Assay for mTOR (G)
Binding of an inhibitor to the kinase competes for binding with the tracer, resulting in a loss of FRET.
50 nL of compound dilutions were dispensed onto white 384-well small volume polystyrene plate.

Vps34 = Vps34 (Homo sapiens, UniProt Q8NEB9); experiment: Kinase Glo Luminescent Kinase Assay (Kglo), assay C; assay type: biochemical; details: read-out: Assay C VPS34 IC50
PI 3-kinase beta [7] = target: T3, PI 3-kinase beta; experiment: Kinase Glo Luminescent Kinase Assay (Kglo), assay B; assay type: biochemical; details: read-out: Assay B PI3Kβ IC50
Target sequence in this assay (P42338 whole entry): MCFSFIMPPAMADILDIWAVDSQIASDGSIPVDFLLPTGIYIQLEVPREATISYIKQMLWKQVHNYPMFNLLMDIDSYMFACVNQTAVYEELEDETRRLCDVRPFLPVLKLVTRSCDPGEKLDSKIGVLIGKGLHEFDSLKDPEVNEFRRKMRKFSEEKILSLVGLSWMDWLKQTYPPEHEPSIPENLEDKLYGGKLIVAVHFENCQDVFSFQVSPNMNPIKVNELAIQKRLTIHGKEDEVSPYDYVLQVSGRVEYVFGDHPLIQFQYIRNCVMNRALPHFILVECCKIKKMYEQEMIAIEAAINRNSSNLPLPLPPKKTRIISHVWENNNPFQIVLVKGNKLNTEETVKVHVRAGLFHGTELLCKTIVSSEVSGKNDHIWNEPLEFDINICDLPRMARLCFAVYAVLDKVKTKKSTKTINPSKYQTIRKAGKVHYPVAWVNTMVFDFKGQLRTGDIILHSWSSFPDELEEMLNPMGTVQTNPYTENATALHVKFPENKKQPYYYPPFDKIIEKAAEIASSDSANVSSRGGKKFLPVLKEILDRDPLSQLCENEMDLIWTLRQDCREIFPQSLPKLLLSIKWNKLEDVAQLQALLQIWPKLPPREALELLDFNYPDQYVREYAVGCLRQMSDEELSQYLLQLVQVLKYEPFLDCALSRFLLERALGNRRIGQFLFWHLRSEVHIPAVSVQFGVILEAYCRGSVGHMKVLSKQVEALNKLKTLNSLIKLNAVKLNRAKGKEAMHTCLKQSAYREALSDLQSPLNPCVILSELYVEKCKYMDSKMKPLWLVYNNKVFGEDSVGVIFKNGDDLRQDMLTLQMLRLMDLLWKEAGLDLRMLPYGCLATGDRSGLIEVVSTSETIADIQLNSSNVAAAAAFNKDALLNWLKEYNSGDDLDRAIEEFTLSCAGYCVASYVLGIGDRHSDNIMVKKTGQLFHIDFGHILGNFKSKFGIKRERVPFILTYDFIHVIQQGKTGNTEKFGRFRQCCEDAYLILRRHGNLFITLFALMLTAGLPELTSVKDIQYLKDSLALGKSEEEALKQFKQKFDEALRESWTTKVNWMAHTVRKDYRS
Target sequence in this assay (P27986 461-568 partner): as the sequence (P27986 461-568 partner) above

[8] = test system: IL-8-induced neutrophil shape change in human whole blood; experiment: Whole blood neutrophil shape change assay (L); assay type: cell-based; details: IL-8, human whole blood, read-out: Assay L WBSC IC50

Chain of Vps34 (Q8NEB9 whole entry, species assumed): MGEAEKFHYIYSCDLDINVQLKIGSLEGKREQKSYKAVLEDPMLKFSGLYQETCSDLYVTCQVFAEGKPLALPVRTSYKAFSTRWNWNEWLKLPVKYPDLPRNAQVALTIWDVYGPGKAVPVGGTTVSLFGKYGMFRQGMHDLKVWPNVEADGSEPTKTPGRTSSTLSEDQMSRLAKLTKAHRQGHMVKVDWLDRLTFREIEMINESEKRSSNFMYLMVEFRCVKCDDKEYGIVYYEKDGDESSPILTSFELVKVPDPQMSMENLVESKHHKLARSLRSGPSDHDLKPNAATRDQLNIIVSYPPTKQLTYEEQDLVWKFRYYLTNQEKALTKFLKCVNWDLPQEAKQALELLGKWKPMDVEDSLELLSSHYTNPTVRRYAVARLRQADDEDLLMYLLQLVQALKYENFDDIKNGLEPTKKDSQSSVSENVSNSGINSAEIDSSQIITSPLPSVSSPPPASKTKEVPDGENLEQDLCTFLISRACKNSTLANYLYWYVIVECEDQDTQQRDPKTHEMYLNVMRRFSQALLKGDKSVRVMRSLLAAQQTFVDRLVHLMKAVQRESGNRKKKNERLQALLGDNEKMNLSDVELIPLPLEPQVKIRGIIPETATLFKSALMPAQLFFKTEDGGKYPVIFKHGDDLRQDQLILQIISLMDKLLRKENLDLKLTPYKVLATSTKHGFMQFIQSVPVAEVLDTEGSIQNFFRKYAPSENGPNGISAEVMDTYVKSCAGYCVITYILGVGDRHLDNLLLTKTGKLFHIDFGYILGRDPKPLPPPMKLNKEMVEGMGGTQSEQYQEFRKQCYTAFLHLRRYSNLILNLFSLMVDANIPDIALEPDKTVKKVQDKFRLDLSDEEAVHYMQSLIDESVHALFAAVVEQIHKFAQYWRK
Chain of PI 3-kinase gamma (P48736 whole entry): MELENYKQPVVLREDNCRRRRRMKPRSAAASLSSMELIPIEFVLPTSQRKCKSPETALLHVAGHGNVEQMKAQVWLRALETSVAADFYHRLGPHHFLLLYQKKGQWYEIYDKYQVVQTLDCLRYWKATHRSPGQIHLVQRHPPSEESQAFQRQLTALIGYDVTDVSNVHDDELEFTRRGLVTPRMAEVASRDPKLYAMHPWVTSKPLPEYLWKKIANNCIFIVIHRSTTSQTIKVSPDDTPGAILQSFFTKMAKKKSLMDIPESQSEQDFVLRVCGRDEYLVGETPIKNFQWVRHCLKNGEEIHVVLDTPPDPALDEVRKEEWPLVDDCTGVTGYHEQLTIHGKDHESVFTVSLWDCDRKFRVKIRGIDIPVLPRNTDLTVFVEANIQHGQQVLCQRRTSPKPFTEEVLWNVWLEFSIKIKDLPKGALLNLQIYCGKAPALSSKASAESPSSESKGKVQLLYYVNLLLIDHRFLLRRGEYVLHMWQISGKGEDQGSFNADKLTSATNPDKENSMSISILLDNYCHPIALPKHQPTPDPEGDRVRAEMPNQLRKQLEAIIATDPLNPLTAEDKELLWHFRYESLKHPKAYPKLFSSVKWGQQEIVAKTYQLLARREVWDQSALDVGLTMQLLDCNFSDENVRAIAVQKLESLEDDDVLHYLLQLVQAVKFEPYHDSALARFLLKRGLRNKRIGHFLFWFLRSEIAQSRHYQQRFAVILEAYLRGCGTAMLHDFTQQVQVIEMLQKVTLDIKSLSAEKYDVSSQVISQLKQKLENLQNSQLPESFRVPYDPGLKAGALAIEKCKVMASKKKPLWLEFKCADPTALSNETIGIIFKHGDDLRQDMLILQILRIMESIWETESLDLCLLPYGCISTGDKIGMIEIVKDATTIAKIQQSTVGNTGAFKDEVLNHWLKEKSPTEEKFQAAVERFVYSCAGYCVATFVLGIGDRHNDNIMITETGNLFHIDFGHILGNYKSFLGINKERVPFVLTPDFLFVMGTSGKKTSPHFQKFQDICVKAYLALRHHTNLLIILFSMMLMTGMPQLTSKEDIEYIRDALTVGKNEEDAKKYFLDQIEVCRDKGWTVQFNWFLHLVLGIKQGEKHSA

IC50 (PI 3-kinase delta [1]; Assay F PI3Kδ IC50 (μM)) [µM] | IC50 (PI 4-kinase beta) [nM] | IC50 (PI 3-kinase alpha [2]) [nM] | IC50 (PI 3-kinase alpha [3]) [nM] | IC50 (PI 3-kinase gamma) [nM] | IC50 (PI 3-kinase beta [4]) [nM] | IC50 (PI 3-kinase delta [5]) [nM] | Assay M RLM CI(int) [6] [µL/min/mg] | IC50 (mTOR) [nM] | IC50 (Vps34) [nM] | IC50 (PI 3-kinase beta [7]) [nM] | IC50 [8] [nM] | IC50 (PI 3-kinase delta [1]; read-out: Assay F PI3Kδ IC50) [µM] | IC50 ([8]; Homo sapiens, Neutrophil) [nM] | SMILES
 | > 9100 | 2730 | 640 | 173 | 8380 | 3330 | 105 | > 9100 | > 9100 | > 9100 |  | 0.79 | 5680 | COCCCNS(=O)(=O)c1ccc(C)c(-c2cnc(N)c(-c3ccnc(C)c3)n2)c1 [Example 129.11, 3-(5-amino-6-(2-methylpyridin-4-yl)pyrazin-2-yl)-N-(3-methoxypropyl)-4-methylbenzenesulfonamide]
 | 1500 | 1570 | 290 | 11 | > 10000 | 1140 | 907 | 1100 | > 10000 | 1200 |  | 0.56 | 2470 | Cc1ccc(S(=O)(=O)N2CCCC(F)(F)C2)cc1-c1cnc(N)c(-n2cncn2)n1 [Example 127.1]
 | 5900 | > 10000 | 1400 | 50 | > 10000 | > 10000 | 21 | 5000 | > 10000 | 730 |  | 0.76 | 13800 | Cc1ccc(S(=O)(=O)NC[C@@H]2CCNC2)cc1-c1cnc(N)c(-n2cncn2)n1 [Example 127.57, (R)-3-(5-amino-6-(1H-1,2,4-triazol-1-yl)pyrazin-2-yl)-4-methyl-N-(pyrrolidin-3-ylmethyl)benzenesulfonamide trifluoroacetic acid salt]

Further lines, the compound ahead of its results:

SMILES | IC50 (PI 3-kinase delta [1]; Assay F PI3Kδ IC50 (μM)) [µM] | IC50 (PI 4-kinase beta) [nM] | IC50 (PI 3-kinase alpha [2]) [nM] | IC50 (PI 3-kinase alpha [3]) [nM] | IC50 (PI 3-kinase gamma) [nM] | IC50 (PI 3-kinase beta [4]) [nM] | IC50 (PI 3-kinase delta [5]) [nM] | Assay M RLM CI(int) [6] [µL/min/mg] | IC50 (mTOR) [nM] | IC50 (Vps34) [nM] | IC50 (PI 3-kinase beta [7]) [nM] | IC50 [8] [nM] | IC50 (PI 3-kinase delta [1]; read-out: Assay F PI3Kδ IC50) [µM] | IC50 ([8]; Homo sapiens, Neutrophil) [nM]
Cc1ccc(S(=O)(=O)NC2CC3(CC(O)C3)C2)cc1-c1cnc(N)c(-n2cncn2)n1 (single isomer, unassigned) [Example 70a, (S)-3-(5-Amino-6-(1H-1,2,4-triazol-1-yl)pyrazin-2-yl)-N-(6-hydroxyspiro[3.3]heptan-2-yl)-4-methylbenzenesulfonamide or (R)-3-(5-Amino-6-(1H-1,2,4-triazol-1-yl)pyrazin-2-yl)-N-(6-hydroxyspiro[3.3]heptan-2-yl)-4-methylbenzenesulfonamide] | 0.29 | 4600 | 1920 | 110 | 25 | 2640 | 1410 | 58 | 2000 | > 10000 | 750 | 185 |  | 
CC(C)(O)CNS(=O)(=O)c1cccc(-c2cnc(N)c(-n3cncn3)n2)c1 [Example 123, 3-(5-Amino-6-(1H-1,2,4-triazol-1-yl)pyrazin-2-yl)-N-(2-hydroxy-2-methylpropyl)benzenesulfonamide] |  | 2500 | > 10000 | 2900 | 2100 | > 10000 | 3630 | 62 | 9000 | > 10000 | 5500 |  | 4.7 | 85100
Cc1ccc(S(=O)(=O)NCC(C)(C)O)cc1-c1cnc(N)c(-c2cnn(CC(F)(F)F)n2)n1 [Example 84, 3-(5-Amino-6-(2-(2,2,2-trifluoroethyl)-2H-1,2,3-triazol-4-yl)pyrazin-2-yl)-N-(2-hydroxy-2-methylpropyl)-4-methyl benzenesulfonamide] |  | 7050 | 450 | 120 | 42 | > 3000 | 440 | 64 | > 10000 | > 10000 | 2300 |  | 0.21 | 1010
Cc1ccc(S(=O)(=O)N[C@H]2C[C@H](O)C2)cc1-c1cnc(N)c(-n2cncn2)n1 [Example 71a, 3-(5-Amino-6-(1H-1,2,4-triazol-1-yl)pyrazin-2-yl)-N-((1r,3r)-3-hydroxycyclobutyl)-4-methylbenzenesulfonamide] |  | 2800 | 3060 | 330 | 13 | 8020 | 3650 | 18 | > 10000 | > 10000 | 1100 | 763 | 1 | 
Cc1ccc(S(=O)(=O)N[C@H]2C[C@@H](O)C2)cc1-c1cnc(N)c(-n2cncn2)n1 [Example 71b, 3-(5-amino-6-(1H-1,2,4-triazol-1-yl)pyrazin-2-yl)-N-((1s,3s)-3-hydroxycyclobutyl)-4-methylbenzenesulfonamide] |  | 4600 | 6910 | 760 | 21 | > 10000 | 5860 | 26 | > 10000 | > 10000 | 1900 | 1620 | 1.3 | 
Cc1ccc(S(=O)(=O)NC2CC3(CC(O)C3)C2)cc1-c1cnc(N)c(-n2cncn2)n1 (single isomer, unassigned) [Example 70b, (S)-3-(5-Amino-6-(1H-1,2,4-triazol-1-yl)pyrazin-2-yl)-N-(6-hydroxyspiro[3.3]heptan-2-yl)-4-methylbenzenesulfonamide or (R)-3-(5-Amino-6-(1H-1,2,4-triazol-1-yl)pyrazin-2-yl)-N-(6-hydroxyspiro[3.3]heptan-2-yl)-4-methylbenzenesulfonamide] | 1.1 | > 10000 | 4060 | 840 | 4 | > 10000 | 3980 | 57 | 5900 | > 10000 | 2500 | 687 |  | 
CC(C)(O)CNS(=O)(=O)c1ccc(Cl)c(-c2cnc(N)c(-n3cncn3)n2)c1 [Example 37, 3-(5-Amino-6-(1H-1,2,4-triazol-1-yl)pyrazin-2-yl)-4-chloro-N-(2-hydroxy-2-methylpropyl)benzenesulfonamide] |  | 3500 | 7910 | 1000 | 83 | 1890 | 5920 | 33 | 5900 | > 9100 | 3500 |  | 0.73 | 1550
CC(C)(O)CCNS(=O)(=O)c1ccc(Cl)c(-c2cnc(N)c(-n3cncn3)n2)c1 [Example 38, 3-(5-Amino-6-(1H-1,2,4-triazol-1-yl)pyrazin-2-yl)-4-chloro-N-(3-hydroxy-3-methylbutyl)benzenesulfonamide] |  | 4200 | 3020 | 920 | 25 | 2110 | 2360 | 89 | 8400 | > 9100 | 3500 |  | 0.14 | 3380
